Experimental findings from EP4616867A1, “COMBINATION OF ENDOTHELIN RECEPTOR ANTAGONIST AND GLUCOCORTICOID FOR TREATING IGA NEPHROPATHY” (Sanreno Therapeutics (Shanghai) Limited, priority 2022, dated 2024) are described below.

The subject of this assay is IgA nephropathy model mice. Put plainly: Efficacy of atrasentan, methylprednisolone and combinations in IgA nephropathy model mice (CFA-stimulated humanized IGHA1 mice); blood hIgA1, IgG, IgM. Format: in vivo. The following applies: IgAN mice; for IgG, Difference between pre-treatment and post-treatment value (post-treatment minus pre-treatment), Mean (SD) / IgG, Difference between pre-treatment and post-treatment value (post-treatment minus pre-treatment), Median (Q1 - Q3) / IgM, Difference between pre-treatment and post-treatment value (post-treatment minus pre-treatment), Mean (SD) / IgM, Difference between pre-treatment and post-treatment value (post-treatment minus pre-treatment), Median (Q1 - Q3) / hIgA1, Difference between pre-treatment and post-treatment value (post-treatment minus pre-treatment), Mean (SD) / hIgA1, Difference between pre-treatment and post-treatment value (post-treatment minus pre-treatment), Median (Q1 - Q3): 30 days gavage; for IgG, After treatment, Mean (SD) / IgG, After treatment, Median (Q1 - Q3) / IgM, After treatment, Mean (SD) / IgM, After treatment, Median (Q1 -Q3) / hIgA1, After treatment, Mean (SD) / hIgA1, After treatment, Median (Q1 - Q3): after 30 days gavage, atrasentan 15 mg/kg/day, methylprednisolone 5 mg/kg/day, dapagliflozin 1 mg/kg/day; for IgG, Before treatment, Mean (SD) / IgG, Before treatment, Median (Q1 - Q3) / IgM, Before treatment, Mean (SD) / IgM, Before treatment, Median (Q1 - Q3) / hIgA1, Before treatment, Mean (SD) / hIgA1, Before treatment, Median (Q1 - Q3): baseline before dosing. An excerpt: The present invention will be further described below through examples, but the examples are not meant to limit the scope of the present invention in any way. For the measurement methods of various parameters in the examples, reference should be made to Wan F, Wang H, Wang M, Lü J, Zhao M, Zhang H. Sustained release of Lactobacillus casei cell wall extract can induce a continuous and stable IgA deposition model. […] Chimeric Fusion between Clostridium Ramosum IgA Protease and IgG Fc Provides Long-Lasting Clearance of IgA Deposits in Mouse Models of IgA Nephropathy. […] The above-mentioned documents are incorporated into this application in their entirety. […] Complete Freunds adjuvant (CFA) and phosphate buffer solution (PBS) were mixed thoroughly and emulsified at a ratio of 1:1 to obtain a CFA injection that was intraperitoneally injected into 8-week-old humanized IGHA1 mice constructed in step 1. Four times the mouse body weight (4w μl) was injected every 2 weeks, administering a total of 6 injections over a time period of about 2.5 months. • 2. In this experiment, the 8-week-old humanized IgA1 mice underwent an induction period of 2 to 5 months after the final injection of CFA. Table 1 […] Each group received intraperitoneal injections of CFA injection to create a model. Upon model completion, atrasentan, methylprednisolone and/or dapagliflozin were administered as outlined below. The control group was administered an equal amount of solvent (an aqueous solution of 0.5% (w/v) methylcellulose and 0.5% (v/v) Tween 80) by gavage for 30 days. Dosing method: atrasentan (15 mg/kg/day), methylprednisolone (5 mg/kg/day), dapagliflozin (1 mg/kg/day) were administered by gavage every morning for 30 days. When co-administered, the required medicines were mixed together in the appropriate proportion (the dose of each medicine was calculated according to mouse body weight) before administration by gavage. […] Prior to dosing, once every 2 weeks during the dosing period, and on day 30 of dosing, urine creatinine, urine protein level, and albumin to creatinine ratio (ACR) were measured, and the mice checked for the presence of haematuria. Prior to dosing and on day 30 of dosing, renal tissue pathology was scored according to the Oxford classification system, IgA and C3 deposition in renal tissue was measured by immunofluorescence assay, and mice in each group were examined for cardiac pathology.

Take `C[C@H]1C[C@@H]2[C@H]([C@@H](O)C[C@@]3(C)[C@H]2CC[C@]3(O)C(=O)CO)[C@@]2(C)C=CC(=O)C=C12` [Methylprednisolone (MP), methylprednisolone]: the “IgG, Difference between pre-treatment and post-treatment value (post-treatment minus pre-treatment), Mean (SD)” value is on record as -0.10(0.20); the “IgG, Difference between pre-treatment and post-treatment value (post-treatment minus pre-treatment), Median (Q1 - Q3)” value is -0.09(-0.28 - 0.39); the “IgM, Difference between pre-treatment and post-treatment value (post-treatment minus pre-treatment), Mean (SD)” value is listed as -0.04(0.08); the “IgM, Difference between pre-treatment and post-treatment value (post-treatment minus pre-treatment), Median (Q1 - Q3)” value was -0.05(-0.12 - 0.13). In addition, the “hIgA1, Difference between pre-treatment and post-treatment value (post-treatment minus pre-treatment), Mean (SD)” value was -0.03( 0.70); the “hIgA1, Difference between pre-treatment and post-treatment value (post-treatment minus pre-treatment), Median (Q1 - Q3)” value is -0.11 (-1.97 - 2.12); the “IgG, After treatment, Mean (SD)” value is listed as 4.75(0.81); the “IgG, After treatment, Median (Q1 - Q3)” value is listed as 3.56(3.22 - 7.06). Further, the “IgM, After treatment, Mean (SD)” value is recorded as 1.51(0.33); the “IgM, After treatment, Median (Q1 -Q3)” value is on record as 1.08(0.80 - 2.34); the “hIgA1, After treatment, Mean (SD)” value is on record as 6.63(0 .79); the “hIgA1, After treatment, Median (Q1 - Q3)” value was 6.23( 4.78 - 8.97). Besides, the “IgG, Before treatment, Mean (SD)” value is given as 4.85(0.94); the “IgG, Before treatment, Median (Q1 - Q3)” value is given as 3.75(3.04 - 7.83); the “IgM, Before treatment, Mean (SD)” value is listed as 1.55(0.28); the “IgM, Before treatment, Median (Q1 - Q3)” value is reported as 1.31(0.90 - 2.22). In addition, the “hIgA1, Before treatment, Mean (SD)” value is 6.66( 0.37) and the “hIgA1, Before treatment, Median (Q1 - Q3)” value is 6.69(6. 12 - 7.53).
On to `CCCCN(CCCC)C(=O)CN1C[C@H](c2ccc3c(c2)OCO3)[C@@H](C(=O)O)[C@@H]1c1ccc(OC)cc1` [Atrasentan (A), atrasentan], for which the “IgG, Difference between pre-treatment and post-treatment value (post-treatment minus pre-treatment), Mean (SD)” value is recorded as 1.69(0.35); the “IgG, Difference between pre-treatment and post-treatment value (post-treatment minus pre-treatment), Median (Q1 - Q3)” value is 1.58(1.11 - 2.23); the “IgM, Difference between pre-treatment and post-treatment value (post-treatment minus pre-treatment), Mean (SD)” value is on record as 0.54(0.23); the “IgM, Difference between pre-treatment and post-treatment value (post-treatment minus pre-treatment), Median (Q1 - Q3)” value was 0.38(0.07 - 0.69). Besides, the “hIgA1, Difference between pre-treatment and post-treatment value (post-treatment minus pre-treatment), Mean (SD)” value is on record as 5.95 (1.50); the “hIgA1, Difference between pre-treatment and post-treatment value (post-treatment minus pre-treatment), Median (Q1 - Q3)” value is listed as 4.96 (3.03 - 8.99); the “IgG, After treatment, Mean (SD)” value is reported as 5.04(0.10); the “IgG, After treatment, Median (Q1 - Q3)” value is on record as 5.06(4.74 - 5.25). In addition, the “IgM, After treatment, Mean (SD)” value is 2.08(0.45); the “IgM, After treatment, Median (Q1 -Q3)” value is listed as 1.72(1.28 - 2.26); the “hIgA1, After treatment, Mean (SD)” value was 15.99( 3.40); the “hIgA1, After treatment, Median (Q1 - Q3)” value is 12.99 (7.93 - 23.80). For the same molecule, the “IgG, Before treatment, Mean (SD)” value is listed as 3.35(0.36); the “IgG, Before treatment, Median (Q1 - Q3)” value was 3.32(2.90 - 4.14); the “IgM, Before treatment, Mean (SD)” value is given as 1.55(0.25); the “IgM, Before treatment, Median (Q1 - Q3)” value is given as 1.31(1.02 - 1.97). Besides, the “hIgA1, Before treatment, Mean (SD)” value was 10.04 (2.46) and the “hIgA1, Before treatment, Median (Q1 - Q3)” value is recorded as 7.88(4. 24 - 16.39).
